Experimental data: paper PMC6467762 (ACS infectious diseases, 2018)
Entries after “also recorded” stand apart in the source; their conditions may differ. Like-named read-outs stand apart in the source and are kept apart here.

Experiments:
[1] = system: DSM265-resistant P. falciparum Dd2 parasites; assay: Drug sensitivity of DSM265-resistant Dd2 parasites; format: cell-based, Plasmodium falciparum; conditions: DSM265-selected Dd2 mutant lines; values in Table S1 (not available)
P. vivax = conditions: compared with P. falciparum; cited from earlier work
P. falciparum sporozoite = conditions: cited from earlier work
P. falciparum Dd2 parent = assay: In vitro 72 h drug susceptibility assay, CRISPR/Cas9 study; format: cell-based; conditions: Plasmodium falciparum, DD2|DSM265, read-out: DSM265 EC50
[2] = system: P. falciparum Dd2 R2B (DHODH R265G); assay: P. falciparum growth EC50 determination; format: cell-based; conditions: Plasmodium falciparum, DD2|DSM265, read-out: DSM265 EC50
[3] = system: P. falciparum Dd2^Dhodh C276Y (CRISPR/Cas9-edited clones); assay: In vitro 72 h drug susceptibility assay, CRISPR/Cas9 study; format: cell-based; conditions: Plasmodium falciparum, DD2|DSM265, read-out: DSM265 EC50
[4] = system: P. falciparum Dd2 R1BClA (DHODH L531F); assay: P. falciparum growth EC50 determination; format: cell-based; conditions: Plasmodium falciparum, DD2|DSM265, read-out: DSM265 EC50
[5] = single ascending dose (25–1200 mg), humans; cited from earlier work
P. falciparum malaria = conditions: cited from earlier work
[6] = system: P. falciparum Dd2 BSmut control; assay: In vitro 72 h drug susceptibility assay, CRISPR/Cas9 study; format: cell-based; conditions: Plasmodium falciparum, DD2|DSM265, read-out: DSM265 EC50
[7] = system: P. falciparum blood stage; conditions: humans; cited from earlier work
[8] = neutral pH; cited from earlier work
[9] = system: P. falciparum Dd2 RIAClB (DHODH C276F); assay: P. falciparum growth EC50 determination; format: cell-based; conditions: Plasmodium falciparum, DD2|DSM265, read-out: DSM265 EC50
P. falciparum = conditions: number of parasites; cited from earlier work
[10] = system: P. falciparum Dd2 R3B (DHODH E182D); assay: P. falciparum growth EC50 determination; format: cell-based; conditions: Plasmodium falciparum, DD2|DSM265, read-out: DSM265 EC50
[11] = system: P. falciparum Dd2 R10ClB (DHODH G181C); assay: P. falciparum growth EC50 determination; format: cell-based; conditions: Plasmodium falciparum, DD2|DSM265, read-out: DSM265 EC50
P. falciparum Dd2 WT = assay: microbe, parasite or virus in culture; format: cell-based; conditions: Plasmodium falciparum, DD2|DSM265, read-out: DSM265 EC50
[12] = system: P. falciparum line from second round of DSM1 selections (increased dhodh copy number); conditions: cited from earlier work
PfDHODH = conditions: cited from earlier work

In the case of C[C@@H]1CC[C@H]2[C@@H](C)C(=O)O[C@@H]3O[C@@]4(C)CC[C@@H]1[C@]32OO4 [artemisinin], the “Sensitivity of DSM265-resistant parasites (EC50 vs parent Dd2)” value [1] is reported as “fully sensitive; also recorded: retained full sensitivity”.
For Cc1cc(Nc2ccc(S(F)(F)(F)(F)F)cc2)n2nc(C(C)(F)F)nc2n1 [DSM265, 2-(1,1-difluoroethyl)-5-methyl-[N-[4-(pentafluorosulfanyl)phenyl] 1,2,4]triazolo[1,5-a]pyrimidin-7-amine], the “Efficacy against P. vivax” value (P. vivax) is given as “lower”, the Protection from infection (P. falciparum sporozoite; dosed 3 or 7 days before challenge) is given as “partial protection” and the Protection from infection (P. falciparum sporozoite; single dose of 400 mg given 1 day prior to challenge) is given as “full protection”. For the same compound, the EC50 (P. falciparum Dd2 parent) was 4.8 ± 0.86 nM, the EC50 [2] was 150 ± 73 nM and the EC50 [3] was 120 ± 26 nM. The EC50 [4] was 110 ± 17 nM, the Safety [5] was “good safety” and the Cure rate (P. falciparum malaria; single dose of 250 mg) was 60%. The “Patients parasite free, extended 28-day endpoint” value (P. falciparum malaria; single dose of 400 mg) was 8/9, the EC50 [6] was 5.1 ± 0.31 nM and the “Efficacy in blood stage human challenge study” value [7] was “demonstrating efficacy”. For the same compound, the Solubility limit [8] was ~ 30 μM, the EC50 [9] was 170 ± 55 nM and the “Minimum inoculum of resistance for the emergence of DSM265-resistant parasites” value (P. falciparum) was ≥ 10^5. It also gave an EC50 [10] of 71 ± 13 nM, an EC50 [11] of 150 ± 51 nM and an EC50 (P. falciparum Dd2 WT) of 4.6 ± 1.1 nM.
In the case of O=C1C(O)=C([C@H]2CC[C@H](c3ccc(Cl)cc3)CC2)C(=O)c2ccccc21 [atovaquone], the “Sensitivity of DSM265-resistant parasites (EC50 vs parent Dd2)” value [1] is given as “retained full sensitivity; also recorded: fully sensitive” and the “Sensitivity of DSM1-selected, dhodh-amplified cell line” value [12] is given as “partial tolerance”.
In the case of Cc1cc(Nc2ccc3ccccc3c2)n2ncnc2n1 [DSM1, 5-methyl-N-(naphthalen-2-yl)-[1,2,4]triazolo[1,5-a]pyrimidin-7-amine], the Mode of inhibition (PfDHODH) is given as “competitive inhibitor of CoQ”.
